Experimental findings from article PMC7356787, “Structure-Activity Relationships for the Anaesthetic and Analgaesic Properties of Aromatic Ring-Substituted Ketamine Esters” (Molecules, 2020) are described below.

The target of data set [1] is N-methyl-D-aspartate receptor. Kind of data set: Inhibition of the NMDA receptor (Eurofins Panlabs Taiwan). The settings on record: conducted by Eurofins Panlabs Taiwan. It is filed as binding. The method, then: (§1) The compounds were evaluated for their ability to anaesthetise rats when administered by continuous intravenous infusion, as reported previously. Compounds were administered to initially deliver 20 mg/kg/min (weight-adjusted flow) to achieve a pedal withdrawal reflex score (PWR = 1), then titrated to maintain loss of righting reflex (LORR) for 10 min. Three rats were used in each study, with each group of rats also acting as their own ketamine control. Data were collected on the total dose of drug (mg/kg), to achieve LORR and a PWR = 1, and on the time (in seconds, from cessation of the infusion) to recovery of righting reflex (RORR) (recovery from the hypnotic anaesthesia effect). Given the complexity of the experimental protocol, the total dose for LORR (Table 1) is very consistent, with ranges of only 1.5-fold within each group. The consistency of the post-sedation recovery times are expectedly lower, with ranges of about 2.5-fold. During recovery the rats were monitored for multiple signs of behavioural dysfunction (see biology section for details) and the sum of these scores (from 0 to 4, with 0 being no effect and 4 being severe dysfunction) is given in Table 2. IC50 values for inhibition of the NMDA receptor were conducted by Eurofins PanLabs, Taiwan.

For data set [2], the system named is rats. Kind of data set: Tail flick analgaesic assessment (composite tail flick latency, cTFL). Format: in vivo. The settings on record: rat, 20 mg/kg i.v. infused over 10 min; AUC of %MPE-time curve 0-60 min; measure of analgaesic magnitude/duration. The method, then: Analgaesic assessment protocol: Animal preparation was in accord with the anaesthetic assessment protocol above. Three rats were used in each study. Following venous cannulation, animals underwent infusion of ketamine or experimental compound at 20 mg/kg over a ten minute interval. A tail flick analgaesia meter (Colombus Instruments, Colombus, Ohio) was then used to determine thermal pain sensitivity. Radiant heat was applied using a shutter-controlled lamp as a heat source focused on a spot located 6–8 cm from the tip of the tail. The intensity of the beam was set at a level producing basal latency times between 2 and 4 s. To prevent thermal tissue injury the cut off time as set at 10 s. A digital response time indicator with a resolution of 0.1s measured the time from initiation of stimulus until tail withdrawal (the flick; TFL).
The TFL response following infusion of control and study drugs was calculated as a percentage of the maximum possible effect (MPE) such that:%MPE = [TFL (post-drug) – TFL (pre-drug)/10 s – TFL (pre-drug)] × 100%(1)
TFL latency was recorded at 5 min intervals from cessation of study drug infusion (time zero) to 60 min. Individual %MPE-time curves were constructed for each animal, and the area under the curve (AUC) adopted as a composite measure of induced analgaesia (cTFL).
For orientation: Hot-plate and tail-flick tests time the reaction to a heat stimulus.

Data set [3] concerns rats. In words: Pedal withdrawal reflex (PWR) scoring during intravenous infusion (analgaesic potency). It is filed as in vivo. The settings on record: rat, i.v. infusion, dose to PWR = 1, mean (SEM), read-out: Analgaesia potency: minimal dose for loss of pedal withdrawal reflex (SEM). The method, then: as §1
(§2) All animal experiments were conducted at the Ruakura Research Centre, Hamilton, New Zealand, using experimental protocols reviewed and approved by the Ruakura Animal Ethics Committee (ethics ref 12604/13786). Adult female Sprague-Dawley rats of approximately 250–350 g were evaluated in both anaesthetic and analgaesic study protocols. All study agents were delivered by tail vein cannula connected via minibore extension tubing to mechanised infusion pump.
(§3) Following acquisition of baseline physiologic parameters (heart rate, respiratory rate, PWR, and righting reflex (RR)) ketamine or an experimental compound at 10mg/mL were commenced at a rate (weight-adjusted) to deliver 20 mg/kg/min. Dose to loss of righting reflex (LORR see below), and subsequent pedal withdrawal score of 1 (PWR see below) were recorded. Following attaining a PWR of 1, infusion rate was reduced to 6.7 mg/kg/min, then titrated in an up-and-down fashion as required to maintain both dorsal recumbency, and a PWR = 1, to 10 min before cessation. Each study used three rats, with each group of rats also acting as their own ketamine control. Prior odds/evens randomisation determined the order of study drug administration was determined by with a recovery interval of at least three hours afforded between experiments. Records of PWR and RR were made at one-minute intervals throughout, from cessation of infusion to return of righting reflex (RORR), and from cessation of infusion to the animals displaying independent locomotion (walk).
Pedal Withdrawal Reflex (PWR) scoring: Nociceptive testing in animals was conducted via 1 s application of constant pressure (firm digital pressure) over the forepaw of the animal. Pedal withdrawal reflex testing is primarily used to assess analgaesic effect, and responses are graded accordingly: 0, absent; 1, flicker; 2, moderate withdrawal; 3, fast withdrawal; 4, Fast withdrawal with cry/preceding apnoea (modified from).

The subject of data set [4] is rats. Kind of data set: Anaesthetic assessment by continuous intravenous infusion in rats (loss and return of righting reflex). Format: in vivo. The settings on record: rat; for minimal effective dose: iv, i.v. infusion starting at 20 mg/kg/min, measure of sedative potency, mean (SEM), read-out: Sedation LORR: minimal dose for loss of righting reflex (SEM). The method, then:
as §1, §2, §3
Loss of Righting Reflex (LORR): This is primarily used to assess anaesthetic hypnotic effect. Righting reflex is judged absent when the rat fails to right from a position of dorsal recumbency to a position of sternal recumbency on three attempts performed in rapid succession. Dose to LORR is termed effective potency.

For data set [5], the system named is rats. In words: Behavioural dysfunction scoring during recovery from infusion. Format: in vivo. The settings on record: rat, during wake-up; sum score 0 (no effect) to 4 (severe dysfunction); mean (SEM). The method, then: as §1
Behavioural dysfunction scoring: This was undertaken according to the following table. Observations were made over a one minute interval every five minutes from cessation of infusion until return of normal behaviours (total score = 0). A score of 1 was accorded for any positive behavioural aberration for each of four categories (maximal score 4) during wake-up.
Duration of any behavioural aberration was recorded from RORR as follows: score 0 = nil; score1 = 0–120 s; score 2 = 121–300 s; score 3 = 301–600 s; score 4 = 600+ s.

On to `COC(=O)CCCCNC1(c2cccc(Cl)c2)CCCCC1=O` (centres unmarked) [10b], for which, in data set [1], the half-inhibitory concentration (IC50) was found to be 13 µM. Also, the “Analgaesia cTFL (composite tail flick latency)” value (“Analgaesia cTFL” below) in the data set with rats [2] is 54 s. The minimal effective dose was found to be 61 mg/kg in the data set on rats [3] and 51 mg/kg in the data set on rats [4]. Moreover, the “Behavioural dysfunction Score (SEM): severity on recovery” value (“Behavioural dysfunction Score (SEM)” for short) with rats [5] is 3 (1).
The like results for `COC(=O)CCCCNC1(c2ccccc2)CCCCC1=O` (centres unmarked) [3b] were, in that order, 9.9 µM, 0 s, 45 mg/kg, 40 mg/kg and 1 (0).
`CC(C)OC(=O)CCNC1(c2ccccc2F)CCCCC1=O` (centres unmarked) [4a] yielded an IC50 in data set [1] of 249 µM. In the data set on rats [2], the “Analgaesia cTFL” value stood at 1297 s. The minimal effective dose in the data set with rats [3] was found to be 62 mg/kg; with rats [4] it was 59 mg/kg. The “Behavioural dysfunction Score (SEM)” value with rats [5] was 1 (0).
The like results for `COC(=O)CCCCNC1(c2ccc(Cl)cc2)CCCCC1=O` (centres unmarked) [15b, Methyl 5-((1-(4-chlorophenyl)-2-oxocyclohexyl)amino)pentanoate] were, in that order, 101 µM, 576 s, 100 mg/kg, 89 mg/kg and 3 (1).
In the same order, the values of `Cc1cccc(C2(NCCC(=O)OC(C)C)CCCCC2=O)c1` (centres unmarked) [11a] are 466 µM, 63 s, 50 mg/kg, 38 mg/kg and 2 (1).
The like results for `CC(C)OC(=O)CCNC1(c2cccc(OC(F)(F)F)c2)CCCCC1=O` (centres unmarked) [14a] were, in that order, 211 µM, 274 s, above 200 mg/kg, above 200 mg/kg and 0 (0).
Regarding `COC(=O)CCCCNC1(c2cccc(C(F)(F)F)c2)CCCCC1=O` (centres unmarked) [13b], the 50% inhibitory concentration (IC50) in data set [1] stood at 172 µM. In the data set with rats [2], the “Analgaesia cTFL” value was 8 s. For the same compound, the minimal effective dose with rats [3] and in the data set on rats [4] was above 200 mg/kg each time. Further, the “Behavioural dysfunction Score (SEM)” value with rats [5] is on record as 0 (0).
As to `CC(C)OC(=O)CCNC1(c2ccc(Cl)cc2)CCCCC1=O` (centres unmarked) [15a], the 50% inhibitory concentration (IC50) in data set [1] was 129 µM. Besides, the “Analgaesia cTFL” value with rats [2] is 491 s. Besides, the minimal effective dose in the data set with rats [3] is above 200 mg/kg; in the data set with rats [4] it was 99 mg/kg. In addition, the “Behavioural dysfunction Score (SEM)” value with rats [5] was 2 (1).
In data set [1], `COC(=O)CCCCNC1(c2ccccc2OC(F)(F)F)CCCCC1=O` (centres unmarked) [9b] registered an IC50 of 121 µM. In addition, in the data set with rats [2], the “Analgaesia cTFL” value was 119 s. For the same compound, the minimal effective dose in the data set on rats [3] and with rats [4] was above 200 mg/kg throughout. Further, the “Behavioural dysfunction Score (SEM)” value with rats [5] is listed as 3 (1).
In data set [1], `COC(=O)CCCCNC1(c2cccc(C)c2)CCCCC1=O` (centres unmarked) [11b] had an IC50 of 5.2 µM. The “Analgaesia cTFL” value with rats [2] was 104 s. Also, the minimal effective dose in the data set with rats [3] is 43 mg/kg; in the data set with rats [4], 39 mg/kg. For the same compound, in the data set with rats [5], the “Behavioural dysfunction Score (SEM)” value is recorded as 2 (1).
In the same order, the values of `CC(C)OC(=O)CCNC1(c2cccs2)CCCCC1=O` (centres unmarked) [20a] are 157 µM, 362 s, above 200 mg/kg, above 200 mg/kg and 1 (1).
In turn, `COC(=O)CCCCNC1(c2ccccc2C)CCCCC1=O` (centres unmarked) [6b] had an IC50 in data set [1] of 3.4 µM. Besides, in the data set with rats [2], the “Analgaesia cTFL” value was determined as 91 s. Moreover, the minimal effective dose in the data set on rats [3] was found to be 43 mg/kg; in the data set on rats [4] it was 37 mg/kg. Further, the “Behavioural dysfunction Score (SEM)” value with rats [5] is listed as 1 (0).
Take `CC(C)OC(=O)CCNC1(c2ccccc2OC(F)(F)F)CCCCC1=O` (centres unmarked) [9a]: in data set [1], the IC50 came out at 184 µM. For the same compound, in the data set with rats [2], the “Analgaesia cTFL” value turned out to be 80 s. In addition, the minimal effective dose in the data set on rats [3] and with rats [4] was 62 mg/kg in each case. Also, the “Behavioural dysfunction Score (SEM)” value with rats [5] is 1 (0).
Turning to `COC(=O)CCCCNC1(c2ccccc2OC)CCCCC1=O` (centres unmarked) [7b], in data set [1], the IC50 is above 1000 µM. Moreover, the “Analgaesia cTFL” value with rats [2] was determined as 2332 s. In addition, the minimal effective dose amounted to 49 mg/kg with rats [3] and 34 mg/kg with rats [4]. For the same compound, the “Behavioural dysfunction Score (SEM)” value with rats [5] is listed as 3 (1).
`COC(=O)CCCCNC1(c2cccs2)CCCCC1=O` (centres unmarked) [20b] yielded an IC50 in data set [1] of 8.9 µM. Also, in the data set with rats [2], the “Analgaesia cTFL” value amounted to 196 s. Also, the minimal effective dose in the data set on rats [3] is 74 mg/kg; with rats [4] it was 52 mg/kg.
Consider `COC(=O)CCCCNC1(c2ccccc2C(F)(F)F)CCCCC1=O` (centres unmarked) [8b], for which 128 µM corresponded to half-maximal inhibition in data set [1] (IC50). In the data set on rats [2], the “Analgaesia cTFL” value is 1864 s. For the same compound, the minimal effective dose came out at 156 mg/kg in the data set with rats [3] and 154 mg/kg with rats [4]. The “Behavioural dysfunction Score (SEM)” value in the data set with rats [5] is 1 (0).
The like results for `COc1ccc(C2(NCCC(=O)OC(C)C)CCCCC2=O)cc1` (centres unmarked) [17a] were, in that order, 396 µM, 167 s, above 200 mg/kg, above 200 mg/kg and 0 (0).
The like results for `COC(=O)CCCCNC1(c2ccc(C)cc2)CCCCC1=O` (centres unmarked) [16b] were, in that order, 23 µM, 0 s, 55 mg/kg, 50 mg/kg and 1 (0).
Turning to `COC(=O)CCCCNC1(c2ccc(OC)cc2)CCCCC1=O` (centres unmarked) [17b], the IC50 in data set [1] came to 94.1 µM. In addition, in the data set on rats [2], the “Analgaesia cTFL” value amounted to 551 s. The “Seizure-inducing effect during infusion” value with rats [4] (i.v. infusion in anaesthetic assessment protocol) is “seizure-inducing effect”. In addition, the “Behavioural dysfunction Score (SEM)” value in the data set with rats [5] was 3 (0).
In data set [1], `CC(C)OC(=O)CCNC1(c2cccc(C(F)(F)F)c2)CCCCC1=O` (centres unmarked) [13a] yielded an IC50 of 229 µM. Also, the “Analgaesia cTFL” value in the data set with rats [2] was found to be 208 s. Also, the minimal effective dose with rats [3] and in the data set on rats [4] was above 200 mg/kg each time. In addition, the “Behavioural dysfunction Score (SEM)” value in the data set with rats [5] was 0 (0).

What is called IC50 is the concentration that gives 50% inhibition.
